In article PMC7318243, “Computationally Empowered Workflow Identifies Novel Covalent Allosteric Binders for KRAS^G12C” (Chemmedchem, 2020):

Each molecule was assayed against T1, KRAS^G12C (Homo sapiens, UniProt P01116, G12C) (assay: Biochemical assay: KRAS^G12C activation by SOS1CAT (HTRF, fluorescent GTP loading)). Settings: 180 min pre-incubation with KRAS before addition of SOS1.
T1 construct: KRASG12C (aa 1–169, G12C) were produced for the biochemical assay; made in house
Experimental: One of the most synthetically accessible compounds, 1,6‐naphthyridin‐5(6H)‐one (1), was prepared (Table 1; Scheme S1). Structurally close to 1, isoquinolin‐1(2H)‐one 2 derivatives were also considered for the exploration of structure‐activity relationships (SAR). To measure the proportion of inhibitor reacting with Cys12 of the KRAS^G12C mutant, the bound/unbound protein ratio was quantified by mass spectrometry (MS). Then, the inhibition potency of these compounds towards KRAS^G12C was evaluated in biochemical assays measuring the activation of GDP‐bound KRAS^G12C or KRAS^WT by SOS1.19 […]
3.3 Biochemical activity assays
Measurement of (i) KRASG12C activation by SOS1CAT and (ii) wild-type KRAS activation by SOS1CAT was performed following the previously described protocol, [19] with a pre-incubation time of the test compound with KRAS proteins extended to 180 min before addi tion of SOS1.
This assay quantifies SOS1 CAT mediated loading of KRAS G12C–GDP with a fluorescent GTP analogue. Detection of successful loading was achieved by measuring resonance energy transfer from anti-GST-terbium (FRET donor) bound to GST -KRASG12C to the loaded fluorescent GTP analogue (FRET acceptor). The fluorescent GTP analogue EDA –GTP–DY-647P1 [2'/3'-O-(2-aminoethyl-carbamoyl)guanosine-5'-triphosphate labelled with DY-647P1 (Dyomics GmbH, Germany)] was synthesized by Jena Bioscience (Germany) a nd supplied as a 1 mM aqueous solution. A KRASG12C working solution was prepared in assay buffer [10 mM HEPES pH 7.4 (AppliChem), 150 mM NaCl (Sigma), 5 mM MgCl2 (Sigma), 1 mM DTT (Thermo Fisher), 0.05% BSA Fraction V pH 7.0 (ICN Biomedicals), 0.0025% (v/v) Igepal (Sigma)] containing 100 nM GST-KRASG12C and 2 nM anti-GST-terbium (Cisbio, France). A SOS1 CAT working solution was prepared in an assay buffer containing 20 nM SOS1CAT and 200 nM EDA–GTP–DY-647P1. An inhibitor control solution was prepared in an assay buffer containing 200 nM EDA–GTP–DY-647P1 without […]
SOS1CAT. All steps of the assay were performed at 20 °C. A volume of 2.5 µL of the KRASG12C working solution was added to all wells of the test plate using a Multidrop dispenser (Thermo LabSystems). After 180 min, 2.5 µL of the SOS1CAT working solution was added to all wells, except for the inhibitor control solution wells. After 30 min incubation, HTRF was measured. […]
SYNAPT G2-S quadrupole time-of-flight mass spectrometer connected to a Waters nanoAcquity UPLC system. Samples were loaded on a 2.1 x 5 mm mass prep C4 guard column (Waters) and desalted with a short grad ient (3 min) of increasing concentrations of acetonitrile at a flow rate of 100 µL/min. Spectra were analyzed by using MassLynx v4.1 software and deconvoluted with the MaxEnt1 algorithm. Percent of conversion was determined by the ratio of signal intensiti es of apo-KRAS and KRAS + inhibitor.

T1 sequence (P01116 1-169 isoform P01116-2 G12C): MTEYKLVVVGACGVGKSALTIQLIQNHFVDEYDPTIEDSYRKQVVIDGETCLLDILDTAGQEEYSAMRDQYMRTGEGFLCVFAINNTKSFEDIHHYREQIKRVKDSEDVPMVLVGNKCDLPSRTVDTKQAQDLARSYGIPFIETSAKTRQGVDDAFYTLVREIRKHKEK

IC50 [nM] | SMILES
2800 | C=CC(=O)N1CCC(c2cc3ncc(-c4c(O)cccc4F)cc3c(=O)[nH]2)C1 (stereo not drawn) [Compound 1, 3-(2-Fluoro-6-hydroxyphenyl)-7-[1-(prop-2-enoyl)pyrrolidin-3-yl]-1,6-naphthyridin-5(6H)-one]
4700 | C=CC(=O)N1CCC(c2cc3ccc(-c4c(O)cccc4F)cc3c(=O)[nH]2)C1 (stereo not drawn) [Compound 2, 7-(2-Fluoro-6-hydroxyphenyl)-3-[1-(prop-2-enoyl)pyrrolidin-3-yl]isoquinolin-1(2H)-one]
1300 | C=CC(=O)N1CCC(c2cc3cnc(-c4c(O)cccc4F)cc3c(=O)[nH]2)C1 (stereo not drawn) [Compound 13, 7-(2-Fluoro-6-hydroxyphenyl)-3-[1-(prop-2-enoyl)pyrrolidin-3-yl]-2,6-naphthyridin-1(2H)-one]
